What was measured:
A2780 cells = experiment: In-Vitro Cell Proliferation Assay (SRB, 72 hours); type: cell-based; conditions: Homo sapiens, A2780, 72 h, A2780 cells, 72 hours, sulforhodamine B; read-out: A2780 IC50
How it was run: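 Plated cells exposed to serially diluted compound (0.1% DMSO final) for 72 h at 37 °C, 5% CO2. Viability by SRB staining after TCA fixation, absorbance 570 nm, media-only background subtracted; % inhibition relative to DMSO-treated cells, interpolated between bracketing concentrations.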

NAMPT = NAMPT (Homo sapiens (Human), UniProt P43490); experiment: Biochemical Inhibition Assay (NAMPT enzymatic reaction, NMN quantified by mass spectrometry); conditions: recombinant His-tagged NAMPT, 33 nM; 1 μM NAM; read-out: Biochem IC50
Chain of NAMPT (P43490 whole entry): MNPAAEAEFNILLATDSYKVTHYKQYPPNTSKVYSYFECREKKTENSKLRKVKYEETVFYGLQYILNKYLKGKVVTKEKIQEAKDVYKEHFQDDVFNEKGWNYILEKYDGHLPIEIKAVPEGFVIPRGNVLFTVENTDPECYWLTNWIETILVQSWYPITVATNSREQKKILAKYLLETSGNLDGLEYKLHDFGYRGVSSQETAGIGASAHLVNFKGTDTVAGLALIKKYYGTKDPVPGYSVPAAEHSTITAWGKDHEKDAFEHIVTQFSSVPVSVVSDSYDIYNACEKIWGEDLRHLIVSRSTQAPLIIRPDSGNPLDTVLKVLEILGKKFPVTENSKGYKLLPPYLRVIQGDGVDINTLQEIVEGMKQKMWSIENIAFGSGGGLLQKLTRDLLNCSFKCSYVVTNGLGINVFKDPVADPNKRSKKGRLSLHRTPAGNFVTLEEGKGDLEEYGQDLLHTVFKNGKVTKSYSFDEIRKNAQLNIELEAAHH
How it was run: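 His-tagged human NAMPT from E. coli was preincubated 15 min at RT with compound in Hepes pH 7.5/MgCl2 buffer. Reaction ran 30 min at RT with 1 μM NAM, 100 μM PRPP and 2.5 mM ATP, then was quenched with formic acid. NMN was measured by RapidFire MS, normalized to L-cystathionine, and IC50 derived from % inhibition.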

Compound | IC50 (A2780 cells) | IC50 (NAMPT)
COc1c(C)cc(S(=O)(=O)c2ccc(NC(=O)/C=C/c3cccnc3)cc2)cc1C [(2E)-N-{4-[(4-methoxy-3,5-dimethylbenzene)sulfonyl]phenyl}-3-(pyridin-3-yl)prop-2-enamide] | 49.5 nM | 6.7 nM
COc1ccc(S(=O)(=O)c2ccc(NC(=O)/C=C/c3cccnc3)cc2)cc1C [(2E)-N-{4-[(4-methoxy-3-methylbenzene)sulfonyl]phenyl}-3-(pyridin-3-yl)prop-2-enamide] | 116 nM | 17.1 nM
O=C(/C=C/c1cccnc1)Nc1ccc(S(=O)(=O)c2ccc(-c3ccccc3)cc2)cc1 [(2E)-N-{4-[(4-phenylbenzene)sulfonyl]phenyl}-3-(pyridin-3-yl)prop-2-enamide] | 100 to 1000 nM | 4.5 nM
CCOc1ccc(Cl)cc1S(=O)(=O)c1ccc(NC(=O)/C=C/c2cccnc2)cc1 [(2E)-N-{4-[(5-chloro-2-ethoxybenzene)sulfonyl]phenyl}-3-(pyridin-3-yl)prop-2-enamide] | 5.59 nM | 12.3 nM
COc1ccc(Cl)cc1S(=O)(=O)c1ccc(NC(=O)/C=C/c2cccnc2)cc1 [(2E)-N-{4-[(5-chloro-2-methoxybenzene)sulfonyl]phenyl}-3-(pyridin-3-yl)prop-2-enamide] | 12.6 nM | 4.6 nM
COc1ccc(F)cc1S(=O)(=O)c1ccc(NC(=O)/C=C/c2cccnc2)cc1 [(2E)-N-{4-[(5-fluoro-2-methoxybenzene)sulfonyl]phenyl}-3-(pyridin-3-yl)prop-2-enamide] | 20.5 nM | 14.5 nM
Cc1ccc(F)cc1S(=O)(=O)c1ccc(NC(=O)/C=C/c2cccnc2)cc1 [(2E)-N-{4-[(5-fluoro-2-methylbenzene)sulfonyl]phenyl}-3-(pyridin-3-yl)prop-2-enamide] | 90.1 nM | 7.4 nM
O=C(/C=C/c1cccnc1)NCc1ccc(S(=O)(=O)c2ccccc2)cc1 [(2E)-N-{[4-(benzenesulfonyl)phenyl]methyl}-3-(pyridin-3-yl)prop-2-enamide] | 243 nM | 3 nM
O=C(Nc1ccc(S(=O)(=O)c2ccccc2)cc1)/C(F)=C/c1cccnc1 [(2Z)-N-[4-(benzenesulfonyl)phenyl]-2-fluoro-3-(pyridin-3-yl)prop-2-enamide] | 347 nM | 7 nM
CC(C)CNC(=O)c1cccc(S(=O)(=O)c2ccc(NC(=O)/C=C/c3cccnc3)cc2)c1 [N-(2-methylpropyl)-3-({4-[(2E)-3-(pyridin-3-yl)prop-2-enamido]benzene}sulfonyl)benzamide] | 100 to 1000 nM | 21.3 nM
CC(C)NC(=O)c1cccc(S(=O)(=O)c2ccc(NC(=O)/C=C/c3cccnc3)cc2)c1 [N-(propan-2-yl)-3-({4-[(2E)-3-(pyridin-3-yl)prop-2-enamido]benzene}sulfonyl)benzamide] | 100 to 1000 nM | 17.6 nM
O=C(/C=C/c1cccnc1)Nc1ccc(S(=O)(=O)c2cccc(C(=O)NC3CCCC3)c2)cc1 [N-cyclopentyl-3-({4-[(2E)-3-(pyridin-3-yl)prop-2-enamido]benzene}sulfonyl)benzamide] | 100 to 1000 nM | 16.1 nM
CCNC(=O)c1cccc(S(=O)(=O)c2ccc(NC(=O)/C=C/c3cccnc3)cc2)c1 [N-ethyl-3-({4-[(2E)-3-(pyridin-3-yl)prop-2-enamido]benzene}sulfonyl)benzamide] | 100 to 1000 nM | 7.3 nM
CCNC(=O)c1ccc(S(=O)(=O)c2ccc(NC(=O)/C=C/c3cccnc3)cc2)cc1 [N-ethyl-4-({4-[(2E)-3-(pyridin-3-yl)prop-2-enamido]benzene}sulfonyl)benzamide] | 100 to 1000 nM | 14.7 nM
